According to patent US4465668A, “Method for improving intestinal absorption of cephalosporin derivatives” (Asahi Kasei Kogyo Kabushiki Kaisha, priority 1981, dated 1984):
Each block holds one compound with its values, some of them ahead of it.

Test: Absorption test: blood concentration after oral administration to rats
Settings: rat; for Blood concentration of Compound (I): suspended in 0.7% CMC aqueous solution, group average (5 animals); for Blood Concentration of Compound (II): dissolved in buffer aqueous solution pH 7; for Blood Concentration of Compound (II) / Blood Concentration of Compound (III) / Blood Concentration of Compound (IV) / Blood Concentration of Compound (V) / Blood Concentration of Compound (VI) / Blood Concentration of Compound (VII) / Blood Concentration of Compound (VIII) / Blood Concentration of Compound (IX): group average; for Blood Concentration of Compound (III) / Blood Concentration of Compound (IV) / Blood Concentration of Compound (V) / Blood Concentration of Compound (VI) / Blood Concentration of Compound (VII) / Blood Concentration of Compound (VIII) / Blood Concentration of Compound (IX): suspended in 0.7% CMC
Protocol: The absorption test of the compounds were measured by the following methods.
Male Wistar rats weighing 180-250 g were fed with only water overnight. The next day the rats were orally administered with 50 mg/kg of a test compound which was suspended in a 0.7% CMC aqueous solution. The concentration of the compound in blood of the tested animals (one group consisting of 5 animals) was measured 0.5, 1, 2 and 4 hours after the administration by Bioassay method by using Bacillus subtilis ATCC 6633 strain as an indicator bacteria. In the measurement, an ordinary culture medium was employed, and the preparation of the standard solution and other method were carried out in according to Japanese Antibiotical Pharmaceutical Standards. Further, the concentration of the compound in blood was also measured by high performance liquid chromatography. The blood concentration shown in the examples was an average value of each animal group.
The absorption test of 7-[2-(2-thienyl)-acetoamido]-3-[2-(L-prolyl-L-lysylaminomethyl-1,3,4-thiadiazolyl)-thiomethyl]-3-cephem-4-carboxylic acid formic acid salt was carried out by orally administering the salt which was dissolved in a buffer aqueous solution having the pH of 7. The results are as follows:
The same procedures as described in Example 8 were repeated except that other oligopeptides were employed instead of the α-tert-butyloxycarbonyl-L-prolyl-ε-tert-butyloxycarbonyl-L-lysine. The absorption test of these compounds thus obtained was carried out in the same manner as described in Example 8.

SMILES: CC(C)C[C@H](N)C(=O)N[C@@H](Cc1ccccc1)C(=O)OC(C(=O)NC1C(=O)N2C(C(=O)O)=C(CSc3nnnn3C)CS[C@H]12)c1ccccc1.O=CO (stereo partly drawn) [Example 1, 7-D-(O-L-leucyl-L-phenylalanyl)-mandelamido-3-(1-methyl-1H-tetrazol-5-yl-thiomethyl)-3-cephem-4-carboxylic acid formic acid salt]
Blood concentration of Compound (I) (0.5 hr after oral 50 mg/kg): 4.51 µg/mL
Blood concentration of Compound (I) (1 hr after oral 50 mg/kg): 3.70 µg/mL
Blood concentration of Compound (I) (2 hrs after oral 50 mg/kg): 1.93 µg/mL
Blood concentration of Compound (I) (4 hrs after oral 50 mg/kg): 0.83 µg/mL

SMILES: NCCCC[C@H](NC(=O)[C@@H]1CCCN1)C(=O)NCc1nnc(SCC2=C(C(=O)O)N3C(=O)C(NC(=O)Cc4cccs4)C3SC2)s1.O=CO (stereo partly drawn) [Example 8, 7-[2-(2-thienyl)-acetoamido]-3-[2-(L-prolyl-L-lysylaminomethyl-1,3,4-thiadiazolyl)-thiomethyl]-3-cephem-4-carboxylic acid formic acid salt]
Blood Concentration of Compound (II) (0.5 hr after oral 50 mg/kg): 2.14 µg/mL
Blood Concentration of Compound (II) (1 hr after oral 50 mg/kg): 1.77 µg/mL
Blood Concentration of Compound (II) (2 hrs after oral 50 mg/kg): 1.04 µg/mL
Blood Concentration of Compound (II) (4 hrs after oral 50 mg/kg): 0.07 µg/mL

Blood Concentration of Compound (III) (0.5 hr after oral 50 mg/kg): 1.96 µg/mL
Blood Concentration of Compound (III) (1 hr after oral 50 mg/kg): 2.37 µg/mL
Blood Concentration of Compound (III) (2 hrs after oral 50 mg/kg): 1.03 µg/mL
Blood Concentration of Compound (III) (4 hrs after oral 50 mg/kg): 0.24 µg/mL
SMILES: Cc1nnc(SCC2=C(C(=O)OCOC(=O)[C@H](CCCCN)NC(=O)[C@@H](N)CC(C)C)N3C(=O)C(NC(=O)Cc4csc(N)n4)C3SC2)s1.Cl (stereo partly drawn) [Example 15, 7-[2-(2-amino-4-thiazolyl)acetoamido-3-(5-methyl-1,3,4-thiadiazolyl)thiomethyl]-3-cephem-4-carboxylic acid L-leucyl-L-lysyloxymethyl ester hydrochloric acid salt]

SMILES: CC(=O)OCC1=C(C(=O)O)N2C(=O)[C@@H](NC(=O)CSCCNC(=O)[C@H](CC(C)C)NC(=O)[C@@H](N)Cc3ccccc3)[C@H]2SC1.O=C(O)C(F)(F)F [Example 19, 7β-(2-L-phenylalanyl-L-leucylamidoethylthioacetoamido)-3-acetoxymethyl-3-cephem-4-carboxylic acid trifluoroacetic acid salt]
Blood Concentration of Compound (IV) (0.5 hr after oral 50 mg/kg): 1.07 µg/mL
Blood Concentration of Compound (IV) (1 hr after oral 50 mg/kg): 0.21 µg/mL
Blood Concentration of Compound (IV) (2 hrs after oral 50 mg/kg): 0.09 µg/mL
Blood Concentration of Compound (IV) (4 hrs after oral 50 mg/kg): < 0.01 µg/mL

SMILES: CO/N=C(\C(=O)N[C@@H]1C(=O)N2C(C(=O)O)=C(COC(C)=O)CS[C@H]12)c1csc(NC(=O)[C@H](Cc2ccccc2)NC(=O)[C@@H](N)CC(C)C)n1.O=CO [Example 22, 7β-[2-(2-L-leucyl-L-phenylalanylamidothiazol-4-yl)-(Z)-2-methoxyiminoacetoamido]cephalosporanic acid formic acid salt]
Blood Concentration of Compound (V) (0.5 hr after oral 50 mg/kg): 1.69 µg/mL
Blood Concentration of Compound (V) (1 hr after oral 50 mg/kg): 1.83 µg/mL
Blood Concentration of Compound (V) (2 hrs after oral 50 mg/kg): 1.53 µg/mL
Blood Concentration of Compound (V) (4 hrs after oral 50 mg/kg): 1.03 µg/mL

Blood Concentration of Compound (VI) (0.5 hr after oral 50 mg/kg): 2.11 µg/mL
Blood Concentration of Compound (VI) (1 hr after oral 50 mg/kg): 1.67 µg/mL
Blood Concentration of Compound (VI) (2 hrs after oral 50 mg/kg): 1.10 µg/mL
Blood Concentration of Compound (VI) (4 hrs after oral 50 mg/kg): < 0.1 µg/mL
SMILES: CO/N=C(\C(=O)N[C@@H]1C(=O)N2C(C(=O)O)=C(CSc3nnnn3C)CS[C@H]12)c1csc(NC(=O)[C@H](CCCCN)NC(=O)[C@@H](N)CC(C)C)n1.O=CO [Example 25, 7β-[2-(2-L-leucyl-L-lysylamidothiazol-4-yl)-(Z)-2-methoxyiminoacetoamido]-3-[(1-methyl-1H-tetrazol-5-yl)-thiomethyl]-3-cephem-4-carboxylic acid formic acid salt]

SMILES: CO/N=C(\C(=O)N[C@@H]1C(=O)N2C(C(=O)O)=CCS[C@H]12)c1csc(NC(=O)[C@H](Cc2ccccc2)NC(=O)[C@@H](N)CCSC)n1.O=CO [Example 27, 7β-[2-(2-L-methionyl-L-phenylalanylamidothiazol-4-yl)-(Z)-2-methoxyiminoacetamido]-3-cephem-4-carboxylic acid formic acid salt]
Blood Concentration of Compound (VII) (0.5 hr after oral 50 mg/kg): 2.13 µg/mL
Blood Concentration of Compound (VII) (1 hr after oral 50 mg/kg): 1.84 µg/mL
Blood Concentration of Compound (VII) (2 hrs after oral 50 mg/kg): 1.00 µg/mL
Blood Concentration of Compound (VII) (4 hrs after oral 50 mg/kg): 0.21 µg/mL

Blood Concentration of Compound (VIII) (0.5 hr after oral 50 mg/kg): 3.14 µg/mL
Blood Concentration of Compound (VIII) (1 hr after oral 50 mg/kg): 2.37 µg/mL
Blood Concentration of Compound (VIII) (2 hrs after oral 50 mg/kg): 1.04 µg/mL
Blood Concentration of Compound (VIII) (4 hrs after oral 50 mg/kg): 0.32 µg/mL
SMILES: COC1(NC(=O)CSCC#N)C(=O)N2C(C(=O)OCOC(=O)[C@H](CCCCN)NC(=O)[C@@H](N)CC(C)C)=C(CSc3nnnn3C)CSC21.Cl (stereo partly drawn) [Example 29, 7β-[(cyanomethyl)thio]acetoamido-7α-methoxy-3-[(1-methyl-1H-tetrazol-5-yl)thio]methyl-3-cephem-4-carboxylic acid L-leucyl-L-lysyloxymethyl ester hydrochloric acid salt]

Blood Concentration of Compound (IX) (0.5 hr after oral 50 mg/kg): 5.64 µg/mL
Blood Concentration of Compound (IX) (1 hr after oral 50 mg/kg): 3.84 µg/mL
Blood Concentration of Compound (IX) (2 hrs after oral 50 mg/kg): 1.87 µg/mL
Blood Concentration of Compound (IX) (4 hrs after oral 50 mg/kg): 0.74 µg/mL
SMILES: Cc1nnc(SCC2=C(C(=O)OCOC(=O)[C@H](CCCCN)NC(=O)[C@@H](N)CC(C)C)N3C(=O)C(NC(=O)Cn4cnnn4)C3SC2)s1.Cl (stereo partly drawn) [Example 35, 7-[1-(1H)-tetrazolylacetamido]-3-[2-(5-methyl-1,3,4-thiazolyl)-thiomethyl]-3-cephem-4-carboxylic acid L-leucyl-L-lysyloxymethyl ester hydrochloric acid salt]

SMILES: Cn1nnnc1SCC1=C(C(=O)O)N2C(=O)C(NC(=O)[C@H](OC(=O)[C@@H](N)Cc3ccccc3)c3ccccc3)C2SC1.O=CO (stereo partly drawn) [compound 1, 7-D-(O-L-phenylalanyl)-mandelamido-3-(1-methyl-1H-tetrazol-5-yl-thiomethyl)-3-cephem-4-carboxylic acid formic acid salt, reference compound]
Blood concentration of Compound (I) (0.5 hr after oral 50 mg/kg): 0.21 µg/mL
Blood concentration of Compound (I) (1 hr after oral 50 mg/kg): 0.23 µg/mL
Blood concentration of Compound (I) (2 hrs after oral 50 mg/kg): 0.08 µg/mL
Blood concentration of Compound (I) (4 hrs after oral 50 mg/kg): 0.02 µg/mL
